Earlier results on 2 molecules are cited in patent publication US20090092668A1, “ACETAMINOPHEN FORMULATION FOR JOINT PAIN RELIEF” (priority 2006, published 2009).

The conditions of series [1]: one subject.

On to `N[C@H]1C(O)O[C@H](CO)[C@@H](O)[C@@H]1O` (stereo partly drawn) [glucosamine], for which, where the note is “of the absorbed glucosamine”, the “excreted as exhaled carbon dioxide” value is recorded as 65%, the “excreted in the urine” value is given as 25% and the “remaining in the tissues” value is reported as 10%. In addition, for the setting “sulfate form”, the “absorbed from the small intestine” value is “over 90%”.

As to `CS(C)(=O)=O` [MSM, Methylsulfonylmethane], the pain status entry in series [1] (¼-½ tsp. daily for about 16 months) is “substantially pain-free life”. For the same molecule, the pain relief result in series [1] (½ tsp. daily in diet, by the end of the second week) was “almost total pain relief”.
